Results: ChEMBL document CHEMBL1139487, “Discovery of corticotropin releasing factor 2 receptor selective sauvagine analogues for treatment of skeletal muscle atrophy” (J Med Chem, 2005)

Columns and labels:
[1] = molecular target: T1, Corticotropin-releasing factor receptor 1 (Mus musculus, UniProt P35347); test: In vitro effective concentration for mouse corticotropin releasing factor 1 receptor
T1 sequence (P35347 whole entry): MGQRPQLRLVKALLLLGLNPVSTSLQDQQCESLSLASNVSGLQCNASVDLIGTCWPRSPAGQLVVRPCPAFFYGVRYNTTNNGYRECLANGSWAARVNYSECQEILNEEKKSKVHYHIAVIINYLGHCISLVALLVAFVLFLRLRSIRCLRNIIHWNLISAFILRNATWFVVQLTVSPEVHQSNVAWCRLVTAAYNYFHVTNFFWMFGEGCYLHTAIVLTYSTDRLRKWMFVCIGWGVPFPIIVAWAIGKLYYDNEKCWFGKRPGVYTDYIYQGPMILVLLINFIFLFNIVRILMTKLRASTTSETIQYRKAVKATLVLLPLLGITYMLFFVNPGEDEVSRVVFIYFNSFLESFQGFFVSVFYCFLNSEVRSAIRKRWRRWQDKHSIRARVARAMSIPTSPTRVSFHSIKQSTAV

[2] = molecular target: Corticotropin-releasing factor receptor 2 (Mus musculus) (UniProt Q60748); test: In vitro agonistic activity against mouse corticotropin releasing factor 2 receptor; format: functional
[3] = molecular target: T2, Corticotropin-releasing factor receptor 1 (Mus musculus) (UniProt P35347); test: In vitro agonistic activity against mouse corticotropin releasing factor 1 receptor; format: functional
T2 sequence (whole entry): T1 sequence (P35347 whole entry)

Mus musculus = species on record: Mus musculus; test: Selectivity ratio of EC50s for mouse corticotropin releasing factor receptors 1 and 2
[4] = molecular target: Corticotropin-releasing factor receptor 2 (Mus musculus, UniProt Q60748); test: In vitro effective concentration for mouse corticotropin releasing factor 2 receptor
Sequence of Corticotropin-releasing factor receptor 2 (Q60748 whole entry): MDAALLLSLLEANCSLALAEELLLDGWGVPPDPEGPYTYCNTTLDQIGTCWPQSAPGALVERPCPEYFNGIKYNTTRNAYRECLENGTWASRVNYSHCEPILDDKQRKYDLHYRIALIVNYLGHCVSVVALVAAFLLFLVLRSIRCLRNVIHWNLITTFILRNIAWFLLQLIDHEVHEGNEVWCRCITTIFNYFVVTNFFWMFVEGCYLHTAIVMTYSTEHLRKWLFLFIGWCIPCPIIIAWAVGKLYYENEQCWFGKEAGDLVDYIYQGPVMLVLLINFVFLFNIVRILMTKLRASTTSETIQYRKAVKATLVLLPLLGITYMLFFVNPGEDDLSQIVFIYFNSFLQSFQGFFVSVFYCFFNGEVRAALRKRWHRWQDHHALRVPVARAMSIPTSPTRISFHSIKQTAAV

Sequence of Corticotropin-releasing factor receptor 2 (Mus musculus) (Q60748 whole entry): as above

| Structure (SMILES) | EC50 [1] | Emax [2] | Emax [3] | Selectivity (Mus musculus) | EC50 [4] |
| --- | --- | --- | --- | --- | --- |
| CC[C@H](C)[C@H](NC(=O)[C@@H](NC(=O)[C@H](CC(=O)O)NC(=O)[C@H](CC(C)C)NC(=O)[C@H](CC(C)C)NC(=O)[C@H](CC(C)C)NC(=O)[C@H](CCCN=C(N)N)NC(=O)[C@H](CC(N)=O)NC(=O)[C@H](CC(N)=O)NC(=O)[C@H](C)NC(=O)[C@H](C)NC(=O)[C@H](CCC(N)=O)NC(=O)[C@H](CCC(N)=O)NC(=O)[C@H](CCCCN)NC(=O)[C@H](CCC(=O)O)NC(=O)[C@H](CCCCN)NC(=O)[C@H](CCC(=O)O)NC(=O)[C@H](CCC(N)=O)NC(=O)[C@H](CCCCN)NC(=O)[C@H](CCC(=O)O)NC(=O)[C@@H](NC(=O)[C@H](CCC(=O)O)NC(=O)[C@@H](NC(=O)[C@H](CCSC)NC(=O)[C@H](CCCCN)NC(=O)[C@H](CCCN=C(N)N)NC(=O)[C@H](CC(C)C)NC(=O)[C@H](CC(C)C)NC(=O)[C@@H](NC(=O)[C@@H](NC(=O)[C@@H]1CCCN1C(=O)[C@H](CC(C)C)NC(=O)[C@H](CC(=O)O)NC(=O)[C@@H](NC(=O)[C@H](CO)NC(=O)[C@@H](NC(=O)[C@@H]1CCCN1C(=O)[C@@H]1CCCN1C(=O)CNC(=O)[C@@H]1CCC(=O)N1)[C@@H](C)CC)[C@@H](C)CC)[C@@H](C)O)[C@@H](C)CC)[C@@H](C)CC)[C@@H](C)CC)[C@@H](C)O)C(=O)O | > 1000 nM | 94% | 42% | > 52 | 19.1 nM |
| CC[C@H](C)[C@H](NC(=O)[C@@H](NC(=O)[C@H](CC(=O)O)NC(=O)[C@H](CC(C)C)NC(=O)[C@H](CC(C)C)NC(=O)[C@H](CC(C)C)NC(=O)[C@H](CCCN=C(N)N)NC(=O)[C@H](CC(N)=O)NC(=O)[C@H](CC(N)=O)NC(=O)[C@H](C)NC(=O)[C@H](C)NC(=O)[C@H](CCC(N)=O)NC(=O)[C@H](CCC(N)=O)NC(=O)[C@H](CCCCN)NC(=O)[C@H](CCC(=O)O)NC(=O)[C@H](CCCCN)NC(=O)[C@H](CCC(=O)O)NC(=O)[C@H](CCC(N)=O)NC(=O)[C@H](CCCCN)NC(=O)[C@H](CCC(=O)O)NC(=O)[C@@H](NC(=O)[C@H](CCC(=O)O)NC(=O)[C@@H](NC(=O)[C@H](CCSC)NC(=O)[C@H](CCCCN)NC(=O)[C@H](CCCN=C(N)N)NC(=O)[C@H](CC(C)C)NC(=O)[C@H](CC(C)C)NC(=O)[C@@H](NC(=O)[C@@H](NC(=O)[C@@H]1CCCN1C(=O)[C@H](CC(C)C)NC(=O)[C@H](CC(=O)O)NC(=O)[C@@H](NC(=O)[C@H](CO)NC(=O)[C@@H](NC(=O)[C@@H]1CCCN1C(=O)[C@@H]1CCCN1C(=O)CNC(=O)[C@@H]1CCC(=O)N1)[C@@H](C)CC)[C@@H](C)CC)[C@@H](C)CC)[C@@H](C)CC)[C@@H](C)CC)[C@@H](C)CC)[C@@H](C)O)C(=O)O | > 1000 nM | 73% | 4% | > 68 | 14.8 nM |
| CC[C@H](C)[C@H](NC(=O)[C@@H](NC(=O)[C@H](CC(=O)O)NC(=O)[C@H](CC(C)C)NC(=O)[C@H](CC(C)C)NC(=O)[C@H](CC(C)C)NC(=O)[C@H](CCCN=C(N)N)NC(=O)[C@H](CC(N)=O)NC(=O)[C@H](CC(N)=O)NC(=O)[C@H](C)NC(=O)[C@H](C)NC(=O)[C@H](CCC(N)=O)NC(=O)[C@H](CCC(N)=O)NC(=O)[C@H](CCCCN)NC(=O)[C@H](CCC(=O)O)NC(=O)[C@H](CCCCN)NC(=O)[C@H](CCC(=O)O)NC(=O)[C@H](CCC(N)=O)NC(=O)[C@H](CCCCN)NC(=O)[C@H](CCC(=O)O)NC(=O)[C@@H](NC(=O)[C@H](CCC(=O)O)NC(=O)[C@@H](NC(=O)[C@H](CCSC)NC(=O)[C@H](CCCCN)NC(=O)[C@H](CCCN=C(N)N)NC(=O)[C@H](CC(C)C)NC(=O)[C@H](CC(C)C)NC(=O)[C@H](Cc1c[nH]c2ccccc12)NC(=O)[C@H](CCC(N)=O)NC(=O)[C@@H]1CCCN1C(=O)[C@H](CC(C)C)NC(=O)[C@H](CC(=O)O)NC(=O)[C@@H](NC(=O)[C@H](CO)NC(=O)[C@@H](NC(=O)[C@@H]1CCCN1C(=O)[C@@H]1CCCN1C(=O)CNC(=O)[C@@H]1CCC(=O)N1)[C@@H](C)CC)[C@@H](C)CC)[C@@H](C)CC)[C@@H](C)CC)[C@@H](C)O)C(=O)O | > 1000 nM | 99% | 78% | > 46 | 21.7 nM |
| CC[C@H](C)[C@H](NC(=O)[C@@H](NC(=O)[C@H](CC(=O)O)NC(=O)[C@H](CC(C)C)NC(=O)[C@H](CC(C)C)NC(=O)[C@H](CC(C)C)NC(=O)[C@H](CCCN=C(N)N)NC(=O)[C@H](CC(N)=O)NC(=O)[C@H](CC(N)=O)NC(=O)[C@H](C)NC(=O)[C@H](C)NC(=O)[C@H](CCC(N)=O)NC(=O)[C@H](CCC(N)=O)NC(=O)[C@H](CCCCN)NC(=O)[C@H](CCC(=O)O)NC(=O)[C@H](CCCCN)NC(=O)[C@H](CCC(=O)O)NC(=O)[C@H](CCC(N)=O)NC(=O)[C@H](CCCCN)NC(=O)[C@H](CCC(=O)O)NC(=O)[C@@H](NC(=O)[C@H](CCC(=O)O)NC(=O)[C@@H](NC(=O)[C@H](CCSC)NC(=O)[C@H](CCCCN)NC(=O)[C@H](CCCN=C(N)N)NC(=O)[C@H](CC(C)C)NC(=O)[C@H](CC(C)C)NC(=O)[C@H](CC(C)C)NC(=O)[C@H](CCC(N)=O)NC(=O)[C@@H]1CCCN1C(=O)[C@H](CC(C)C)NC(=O)[C@H](CC(=O)O)NC(=O)[C@@H](NC(=O)[C@H](CO)NC(=O)[C@@H](NC(=O)[C@@H]1CCCN1C(=O)[C@@H]1CCCN1C(=O)CNC(=O)[C@@H]1CCC(=O)N1)[C@@H](C)CC)[C@@H](C)CC)[C@@H](C)CC)[C@@H](C)CC)[C@@H](C)O)C(=O)O | 447 nM | 93% | 96% | 16 | 27.6 nM |
| CC[C@H](C)[C@H](NC(=O)[C@@H](NC(=O)[C@H](CC(=O)O)NC(=O)[C@H](CC(C)C)NC(=O)[C@H](CC(C)C)NC(=O)[C@H](CC(C)C)NC(=O)[C@H](CCCN=C(N)N)NC(=O)[C@H](CC(N)=O)NC(=O)[C@H](CC(N)=O)NC(=O)[C@H](C)NC(=O)[C@H](C)NC(=O)[C@H](CCC(N)=O)NC(=O)[C@H](CCC(N)=O)NC(=O)[C@H](CCCCN)NC(=O)[C@H](CCC(=O)O)NC(=O)[C@H](CCCCN)NC(=O)[C@H](CCC(=O)O)NC(=O)[C@H](CCC(N)=O)NC(=O)[C@H](CCCCN)NC(=O)[C@H](CCC(=O)O)NC(=O)[C@@H](NC(=O)[C@H](CCC(=O)O)NC(=O)[C@@H](NC(=O)[C@H](CCSC)NC(=O)[C@H](CCCCN)NC(=O)[C@H](CCCN=C(N)N)NC(=O)[C@H](CC(C)C)NC(=O)[C@H](CC(C)C)NC(=O)[C@H](Cc1c[nH]c2ccccc12)NC(=O)[C@H](Cc1c[nH]cn1)NC(=O)[C@@H]1CCCN1C(=O)[C@H](CC(C)C)NC(=O)[C@H](CC(=O)O)NC(=O)[C@@H](NC(=O)[C@H](CO)NC(=O)[C@@H](NC(=O)[C@@H]1CCCN1C(=O)[C@@H]1CCCN1C(=O)CNC(=O)[C@@H]1CCC(=O)N1)[C@@H](C)CC)[C@@H](C)CC)[C@@H](C)CC)[C@@H](C)CC)[C@@H](C)O)C(=O)O | 408 nM | 100% | 100% | 16 | 25.1 nM |

The next compounds have a lower EC50 [1] than those just listed; values first:

| EC50 [1] | Emax [2] | Emax [3] | Selectivity (Mus musculus) | EC50 [4] | Structure (SMILES) |
| --- | --- | --- | --- | --- | --- |
| 189 nM | 100% | 99% | 21 | 8.8 nM | CC[C@H](C)[C@H](NC(=O)[C@@H](NC(=O)[C@H](CC(=O)O)NC(=O)[C@H](CC(C)C)NC(=O)[C@H](CC(C)C)NC(=O)[C@H](CC(C)C)NC(=O)[C@H](CCCN=C(N)N)NC(=O)[C@H](CC(N)=O)NC(=O)[C@H](CC(N)=O)NC(=O)[C@H](C)NC(=O)[C@H](C)NC(=O)[C@H](CCC(N)=O)NC(=O)[C@H](CCC(N)=O)NC(=O)[C@H](CCCCN)NC(=O)[C@H](CCC(=O)O)NC(=O)[C@H](CCCCN)NC(=O)[C@H](CCC(=O)O)NC(=O)[C@H](CCC(N)=O)NC(=O)[C@H](CCCCN)NC(=O)[C@H](CCC(=O)O)NC(=O)[C@@H](NC(=O)[C@H](CCC(=O)O)NC(=O)[C@@H](NC(=O)[C@H](CCSC)NC(=O)[C@H](CCCCN)NC(=O)[C@H](CCCN=C(N)N)NC(=O)[C@H](CC(C)C)NC(=O)[C@H](CC(C)C)NC(=O)[C@@H](NC(=O)[C@H](Cc1ccc(O)cc1)NC(=O)[C@@H]1CCCN1C(=O)[C@H](CC(C)C)NC(=O)[C@H](CC(=O)O)NC(=O)[C@@H](NC(=O)[C@H](CO)NC(=O)[C@@H](NC(=O)[C@@H]1CCCN1C(=O)[C@@H]1CCCN1C(=O)CNC(=O)[C@@H]1CCC(=O)N1)[C@@H](C)CC)[C@@H](C)CC)[C@@H](C)O)[C@@H](C)CC)[C@@H](C)CC)[C@@H](C)O)C(=O)O |
| 52.2 nM | 81% | 96% | 28 | 1.9 nM | CC[C@H](C)[C@H](NC(=O)[C@@H](NC(=O)[C@H](CC(=O)O)NC(=O)[C@H](CC(C)C)NC(=O)[C@H](CC(C)C)NC(=O)[C@H](CC(C)C)NC(=O)[C@H](CCCN=C(N)N)NC(=O)[C@H](CC(N)=O)NC(=O)[C@H](CC(N)=O)NC(=O)[C@H](C)NC(=O)[C@H](C)NC(=O)[C@H](CCC(N)=O)NC(=O)[C@H](CCC(N)=O)NC(=O)[C@H](CCCCN)NC(=O)[C@H](CCC(=O)O)NC(=O)[C@H](CCCCN)NC(=O)[C@H](CCC(=O)O)NC(=O)[C@H](CCC(N)=O)NC(=O)[C@H](CCCCN)NC(=O)[C@H](CCC(=O)O)NC(=O)[C@@H](NC(=O)[C@H](CCC(=O)O)NC(=O)[C@@H](NC(=O)[C@H](CCSC)NC(=O)[C@H](CCCCN)NC(=O)[C@H](CCCN=C(N)N)NC(=O)[C@H](CC(C)C)NC(=O)[C@H](CC(C)C)NC(=O)[C@H](Cc1c[nH]cn1)NC(=O)[C@H](CC(C)C)NC(=O)[C@@H]1CCCN1C(=O)[C@H](CC(C)C)NC(=O)[C@H](CC(=O)O)NC(=O)[C@@H](NC(=O)[C@H](CO)NC(=O)[C@@H](NC(=O)[C@@H]1CCCN1C(=O)[C@@H]1CCCN1C(=O)CNC(=O)[C@@H]1CCC(=O)N1)[C@@H](C)CC)[C@@H](C)CC)[C@@H](C)CC)[C@@H](C)CC)[C@@H](C)O)C(=O)O |
